Results reported in patent US11406687B2, “Activators of CXCR3 for the treatment of angiopathies of the eye” (University of Pittsburgh—Of the Commonwealth System of …, priority 2011, dated 2022).

B1: PF4: 70-amino acid CXC chemokine released from alpha-granules of activated platelets; human PF4 sequence SEQ ID NO: 3 (protein, listed as Homo sapiens)
chain: EAEEDGDLQCLCVKTTSQVRPRHITSLEVIKAGPHCPTAQLIATLKNGRKICLDLQAPLYKKIIKKLLES

Columns and labels:
[1] = system: rabbits with experimental glaucoma; assay: Restenosis following glaucoma treatment in rabbits with experimental glaucoma (Example 1); assay type: in vivo, rabbit; conditions: rabbits treated for glaucoma by drilling an anastomy; peptides injected into the aqueous humor
Description: To test the effect of the 21 amino acid IP-10 peptide (SEQ ID NO: 2) on restenosis following glaucoma treatment, an experiment is conducted in rabbits with experimental glaucoma.
Rabbits are treated with IP-10 peptide (SEQ ID NO: 2), PF4, or a scrambled control peptide. Rabbits are treated for glaucoma by drilling an anastomy. The peptides are then injected into the aqueous humor.
Changes in pressure are evaluated before and after treatment with the peptides.

[2] = system: rabbits with experimental WMD; assay: Wet macular degeneration in rabbits with experimental WMD (Example 2); assay type: in vivo, rabbit; conditions: injection into the vitreous humor, repeated as necessary
Description: To test the effect of the 21 amino acid IP-10 peptide (SEQ ID NO: 2) on wet macular degeneration (WMD), an experiment is conducted in rabbits with experimental WMD.
Rabbits are treated with IP-10 peptide (SEQ ID NO: 2), PF4, or a scrambled control peptide by injection into the vitreous humor. Rabbits are evaluated visually over time to evaluate the effect of each peptide. Injections are repeated as necessary.

Molecule	Changes in pressure before and after treatment with the peptides [1]	Effect on WMD, evaluated visually over time [2]
IP-10 peptide: 21 amino acid fragment of human IP-10, ESKAIKNLLKAVSKERSKRSP (listed as Homo sapiens)	prevent an increase in pressure	inhibit the development of WMD and/or lead to a reversion of WMD
B1	prevent an increase in pressure	inhibit the development of WMD and/or lead to a reversion of WMD
